Experimental data as given in PubChem BioAssay (NCI).
Where “and” joins values, the source holds several entries; their conditions need not be identical. Identical values can stand only once.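 Assay format: 96-well plates, 48-hour exposure. GI50 is the concentration that inhibits growth by half. Definition used: TGI = concentration required for complete inhibition of growth.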

The compounds below were run on MALME-3M melanoma (assay: NCI tumour cell line growth inhibition, 48 h).

First: Cc1ccc([N+](=O)[O-])c2c(NCCCN(C)C)ccnc12
Second: CCOc1cccc2nc3cccc(C(=O)NCCN(C)C)c3nc12
The TGI of the first is 19-fold higher: 44.8 µM for the first, 2.42 µM for the second.

N#Cc1c(N)c(C(=O)O)nn(-c2cccc(C(F)(F)F)c2)c1=O and COc1ccc(C(=O)C(C(=O)CCC(=O)Nc2cccc(C(F)(F)F)c2)c2ccccc2)cc1 (centres undefined) cannot be ordered by TGI: > 100 µM for the first, > 100 µM for the second.

CC1=Nc2c(ccc3c2C(=O)c2ccccc2C3=O)NC(c2ccncc2)C1 (centres undefined) and O=C1c2ccccc2-c2cccc3ccc(Cc4ccccc4)c1c23 cannot be ordered by TGI: > 100 µM for the first, > 100 µM for the second.

Compared with CC(=O)[CH-]C(C)=O.CC(=O)[CH-]C(C)=O.N=CC=N.[Sn+2], CC1CCCC(C(=O)/C(=C/c2cccc(Cl)c2)C(=O)C(=O)O)C1 (centres undefined) is higher in TGI: 4.24 µM for the first, > 100 µM for the second.

COc1cc(/C=C\c2ccc(O)cc2)cc(OC)c1OC and COc1ccc(/C=C/C(=O)c2sc(-n3nc(-c4ccccc4)cc3-c3ccccc3)nc2C)cc1OC cannot be ordered by TGI: > 40.9 µM for the first, > 100 µM for the second.

First: CC1(C)CCc2cc3c(cc2O1)OCCC3=O
Second: C=C1C(=O)O[C@H]2[C@H]1CC/C(COC(=O)c1cc3cc(OC)ccc3[nH]1)=C\CC[C@@]1(C)O[C@@H]21
The TGI of the first is higher: > 100 µM for the first, 3.14 µM for the second.

Going from Oc1c2c(c(O)c3ccccc13)=N[C@@H](c1ccccc1)[C@H](c1ccccc1)N=2 to O=C(c1ccccc1)[C@H]1Nc2cnccc2C2c3ccccc3CC21 (some centres undefined), the TGI falls from > 100 µM to 27.4 µM.

Compared with COc1ccc2c(-c3cc4ccccc4o3)cc(=O)oc2c1, N#CC(C#N)=Cc1cccc(Oc2ccccc2)c1 is lower in TGI: > 100 µM for the first, 43.4 µM for the second.

Cc1cc(C)nc(NS(=O)(=O)c2ccc(Nc3c4ccccc4nc4c(C(=O)N5CCN(CCOS(C)(=O)=O)CC5)ccc(Cl)c34)cc2)n1 and CS(=O)(=O)Nc1ccc(-c2ccc3c(NC(=O)C4CC4)n[nH]c3c2)cc1 cannot be ordered by TGI: > 100 µM for the first, > 25 µM for the second.

Clc1cc(Cl)c2c(Cl)cc(Cl)c3c2c1N=S=N3 and CC(=O)c1c(C)n([O-])c2cc(C)c(C)cc2[n+]1=O cannot be ordered by TGI: > 100 µM for the first, > 100 µM for the second.

CC(=O)OCCOCBr and NC(CCSCC(F)F)C(=O)O (centres undefined) cannot be ordered by TGI: > 100 µM for the first, > 100 µM for the second.

NC1=NC(=O)C(CC(=O)Nc2ccc([N+](=O)[O-])cc2[N+](=O)[O-])S1 (centres undefined) and Cc1ncc([N+](=O)[O-])n1CCNC(=O)CCCCn1ccnc1[N+](=O)[O-] cannot be ordered by TGI: > 100 µM for the first, > 100 µM for the second.

COC(=O)/C(=N\NC(=S)NN)C(C(=O)C(=O)Nc1ccccc1C(N)=O)c1nc2ccccc2[nH]c1=O (centres undefined) and CCOC(=O)[C@@H](C)C[C@H](Cc1ccccc1)NC(=O)c1csc([C@@H](C[C@H](C(C)C)N(C)C(=O)[C@@H](NC(=O)[C@H]2CCCCN2C)C(C)(C)C)OC(C)=O)n1 cannot be ordered by TGI: > 100 µM for the first, > 16.7 µM for the second.

Going from CC/C=C\C/C=C\C1CC(=O)NCCCNCCCCN1 (centres undefined) to Nc1ccc(SC23CC4CC(CC(C4)C2)C3)cc1, the TGI rises from 78.9 µM to > 100 µM.

Going from COc1ccc(C2C(C#N)=C(N)OC3=C2CCCc2ccc(F)cc23)cc1OC (centres undefined) to COC(=O)c1c(O)ccc2[nH]c(C)c(C#N)c12, the TGI rises from 40 µM to 94 µM (2.4-fold).

In the case of CC1(C)OC(=O)C=C([O-])O1.CC1(C)OC(=O)C=C([O-])O1.O=c1c(O)c(-c2ccc([O-])cc2[O-])oc2cc(O)cc(O)c12.[Ti+4], the TGI was > 100 µM.

CC1=Nc2c(ccc3c2C(=O)c2ccccc2C3=O)NC(c2ccncc2)C1 (centres undefined) and CS(=O)(=O)Nc1ccc(-c2ccc3c(NC(=O)C4CC4)n[nH]c3c2)cc1 cannot be ordered by GI50: > 100 µM for the first, > 23.1 µM for the second.

CC(=O)[CH-]C(C)=O.CC(=O)[CH-]C(C)=O.N=CC=N.[Sn+2] and COCC(=O)OC1CCn2c1nc1c2C(=O)C(C)=C(NC(C)=O)C1=O (centres undefined) are within 1.5-fold of each other in GI50: 2.02 µM for the first, 2.37 µM for the second.

Compared with C=C1C(=O)O[C@H]2[C@H]1CC/C(COC(=O)c1cc3cc(OC)ccc3[nH]1)=C\CC[C@@]1(C)O[C@@H]21, COc1ccc(C2C(C#N)=C(N)OC3=C2CCCc2ccc(F)cc23)cc1OC (centres undefined) is 11-fold higher in GI50: 1.61 µM for the first, 18.5 µM for the second.

Going from COC(=O)c1c(O)ccc2[nH]c(C)c(C#N)c12 to CCOC(=O)[C@@H](C)C[C@H](Cc1ccccc1)NC(=O)c1csc([C@@H](C[C@H](C(C)C)N(C)C(=O)[C@@H](NC(=O)[C@H]2CCCCN2C)C(C)(C)C)OC(C)=O)n1, the GI50 falls from 47.9 µM to < 0.00167 µM.

For COCC(=O)OC1CCn2c1nc1c2C(=O)C(C)=C(NC(C)=O)C1=O (centres undefined), the TGI was 4.94 µM and 6.11 µM.

What follows are compounds tested on A498 renal (assay: NCI tumour cell line growth inhibition, 48 h).

Going from CN(C)C(=S)/N=c1\ss/c(=N\S(=O)(=O)c2ccccc2)n1-c1ccccc1 to O=C(c1ccccc1)[C@H]1Nc2cnccc2C2c3ccccc3CC21 (some centres undefined), the TGI falls from > 100 µM to 75.4 µM.

Going from Cc1ccc([N+](=O)[O-])c2c(NCCCN(C)C)ccnc12 to CCOc1cccc2nc3cccc(C(=O)NCCN(C)C)c3nc12, the TGI falls from > 100 µM to 2.26 µM.

N#Cc1c(N)c(C(=O)O)nn(-c2cccc(C(F)(F)F)c2)c1=O and COc1ccc(C(=O)C(C(=O)CCC(=O)Nc2cccc(C(F)(F)F)c2)c2ccccc2)cc1 (centres undefined) cannot be ordered by TGI: > 100 µM for the first, > 100 µM for the second.

CC1=Nc2c(ccc3c2C(=O)c2ccccc2C3=O)NC(c2ccncc2)C1 (centres undefined) and COc1ccc2c(-c3cc4ccccc4o3)cc(=O)oc2c1 cannot be ordered by TGI: > 100 µM for the first, > 92 µM for the second.

Compared with CC(=O)[CH-]C(C)=O.CC(=O)[CH-]C(C)=O.N=CC=N.[Sn+2], C=C(COC(C)=O)CC(/C=C(\C)CCC=C(C)C)OC(C)=O (centres undefined) is higher in TGI: 22.4 µM for the first, > 100 µM for the second.

Compared with COc1cc(/C=C\c2ccc(O)cc2)cc(OC)c1OC, COc1ccc(C2C(C#N)=C(N)OC3=C2CCCc2ccc(F)cc23)cc1OC (centres undefined) is lower in TGI: > 100 µM for the first, 21.9 µM for the second.

First: CC1(C)CCc2cc3c(cc2O1)OCCC3=O
Second: C=C1C(=O)O[C@H]2[C@H]1CC/C(COC(=O)c1cc3cc(OC)ccc3[nH]1)=C\CC[C@@]1(C)O[C@@H]21
The TGI of the first is higher: > 100 µM for the first, 3.04 µM for the second.

Compared with Oc1c2c(c(O)c3ccccc13)=N[C@@H](c1ccccc1)[C@H](c1ccccc1)N=2, c1cc[c]([Sn]([S]c2cccc3cccnc23)([c]2ccccc2)[c]2ccccc2)cc1 is lower in TGI: > 100 µM for the first, 0.346 µM for the second.

Cc1cc(C)nc(NS(=O)(=O)c2ccc(Nc3c4ccccc4nc4c(C(=O)N5CCN(CCOS(C)(=O)=O)CC5)ccc(Cl)c34)cc2)n1 and CS(=O)(=O)Nc1ccc(-c2ccc3c(NC(=O)C4CC4)n[nH]c3c2)cc1 cannot be ordered by TGI: > 100 µM for the first, > 25 µM for the second.

Clc1cc(Cl)c2c(Cl)cc(Cl)c3c2c1N=S=N3 and CC(=O)c1c(C)n([O-])c2cc(C)c(C)cc2[n+]1=O cannot be ordered by TGI: > 100 µM for the first, > 100 µM for the second.

CN1CCN(C)C1c1cccc(C2N(C)CCN2C)c1 and CC1CCCC(C(=O)/C(=C/c2cccc(Cl)c2)C(=O)C(=O)O)C1 (centres undefined) cannot be ordered by TGI: > 100 µM for the first, > 100 µM for the second.

CC(=O)OCCOCBr and NC(CCSCC(F)F)C(=O)O (centres undefined) cannot be ordered by TGI: > 100 µM for the first, > 100 µM for the second.

COCC(=O)OC1CCn2c1nc1c2C(=O)C(C)=C(NC(C)=O)C1=O (centres undefined) and COC(=O)c1c(O)ccc2[nH]c(C)c(C#N)c12 are within 1.5-fold of each other in TGI: 49.2 µM for the first, 54.2 µM for the second.

First: N#CC(C#N)=Cc1cccc(Oc2ccccc2)c1
Second: CCOC(=O)[C@@H](C)C[C@H](Cc1ccccc1)NC(=O)c1csc([C@@H](C[C@H](C(C)C)N(C)C(=O)[C@@H](NC(=O)[C@H]2CCCCN2C)C(C)(C)C)OC(C)=O)n1
The TGI of the first is higher: > 100 µM for the first, < 0.00167 µM for the second.

Cc1ncc([N+](=O)[O-])n1CCNC(=O)CCCCn1ccnc1[N+](=O)[O-] and CC1(C)OC(=O)C=C([O-])O1.CC1(C)OC(=O)C=C([O-])O1.O=c1c(O)c(-c2ccc([O-])cc2[O-])oc2cc(O)cc(O)c12.[Ti+4] cannot be ordered by TGI: > 100 µM for the first, > 100 µM for the second.

For Nc1ccc(SC23CC4CC(CC(C4)C2)C3)cc1, the TGI was > 100 µM.

Going from CC(=O)[CH-]C(C)=O.CC(=O)[CH-]C(C)=O.N=CC=N.[Sn+2] to CCOC(=O)[C@@H](C)C[C@H](Cc1ccccc1)NC(=O)c1csc([C@@H](C[C@H](C(C)C)N(C)C(=O)[C@@H](NC(=O)[C@H]2CCCCN2C)C(C)(C)C)OC(C)=O)n1, the GI50 falls from 9.97 µM to < 0.00167 µM.

Compared with c1cc[c]([Sn]([S]c2cccc3cccnc23)([c]2ccccc2)[c]2ccccc2)cc1, CS(=O)(=O)Nc1ccc(-c2ccc3c(NC(=O)C4CC4)n[nH]c3c2)cc1 is higher in GI50: 0.152 µM for the first, > 25 µM for the second.

First: C=C1C(=O)O[C@H]2[C@H]1CC/C(COC(=O)c1cc3cc(OC)ccc3[nH]1)=C\CC[C@@]1(C)O[C@@H]21
Second: COc1ccc(C2C(C#N)=C(N)OC3=C2CCCc2ccc(F)cc23)cc1OC (centres undefined)
The GI50 of the first is 2.6-fold lower: 1.63 µM for the first, 4.22 µM for the second.

Going from COC(=O)c1c(O)ccc2[nH]c(C)c(C#N)c12 to CC1(C)OC(=O)C=C([O-])O1.CC1(C)OC(=O)C=C([O-])O1.O=c1c(O)c(-c2ccc([O-])cc2[O-])oc2cc(O)cc(O)c12.[Ti+4], the GI50 rises from 20.7 µM to 58.1 µM (2.8-fold).
